Legend:
Type in all cases: cell-based
CDK6 = molecular target: T1, CDK6 (Homo sapiens, UniProt Q00534); assay: CDK6 degradation (DC50, Dmax)
T1 construct: endogenous in cells

CDK4 = molecular target: T2, CDK4 (Homo sapiens, UniProt P11802); assay: CDK4 degradation (DC50, Dmax)
T2 construct: endogenous in cells

[1] = tested on: mantle cell lymphoma cell (Mino or JeKo-1); assay: Antiproliferative effect, MTS cell viability assay; settings: 72 h, mantle cell lymphoma cell (Mino or JeKo-1), MTS assay, read-out: IC50 (anti-proliferation)
Description: Antiproliferative effect of the exemplary compounds was assessed in B-cell malignancy models.
To assess the effect of the exemplary compounds on cell viability in B-cell malignancy models by degradation of CDK4/6 proteins, Mino cells were treated with varying concentrations of exemplary compounds (0, 0.0001, 0.001, 0.01, 0.1, 1 μM) or positive control (palbociclib and abemaciclib). Under these conditions, cell viability was determined by an MTS assay. Cytotoxicity was assayed by the determination of reduced tetrazolium (formazan) created by metabolically active cells as detected at 490 nanometers (nm) absorbance using a microplate reader (BMG Labtech, Cary, NC, USA).
The exemplary compounds attenuated the viability of Mino cells in a concentration-dependent manner at 72 h post treatment. Results are shown in Table 1 and FIGS. 2-15 for each exemplary compound.

T1 sequence (Q00534 whole entry): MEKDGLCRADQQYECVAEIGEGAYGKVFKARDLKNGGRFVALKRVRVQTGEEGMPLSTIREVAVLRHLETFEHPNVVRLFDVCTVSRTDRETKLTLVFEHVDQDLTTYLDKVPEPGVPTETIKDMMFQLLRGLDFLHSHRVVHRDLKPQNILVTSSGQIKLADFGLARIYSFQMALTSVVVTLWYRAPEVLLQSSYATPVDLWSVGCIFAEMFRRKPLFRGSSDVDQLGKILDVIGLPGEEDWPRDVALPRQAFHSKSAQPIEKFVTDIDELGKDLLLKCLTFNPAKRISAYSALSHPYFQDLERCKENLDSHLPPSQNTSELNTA
T2 sequence (P11802 whole entry): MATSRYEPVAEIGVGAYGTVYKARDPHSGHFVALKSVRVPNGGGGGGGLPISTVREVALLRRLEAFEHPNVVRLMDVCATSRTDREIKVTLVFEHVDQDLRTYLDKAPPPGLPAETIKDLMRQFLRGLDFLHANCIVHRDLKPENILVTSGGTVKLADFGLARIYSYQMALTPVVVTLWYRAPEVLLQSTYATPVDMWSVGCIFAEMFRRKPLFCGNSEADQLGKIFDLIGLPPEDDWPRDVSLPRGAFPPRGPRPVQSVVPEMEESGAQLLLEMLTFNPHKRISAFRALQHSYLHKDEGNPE

Row | SMILES | DC50 (CDK6) [nM] | Dmax (CDK6) [%] | DC50 (CDK4) [nM] | Dmax (CDK4) [%] | IC50 [1] [nM]
1 | CC(=O)c1c(C)c2cnc(Nc3ccc(N4CCN(C(=O)N5CCN(CC6CCN(c7ccc8c(c7)CN(C7CCC(=O)NC7=O)C8=O)CC6)CC5)CC4)cn3)nc2n(C2CCCC2)c1=O (stereo not shown) [Compound 16, 3-(5-(4-((4-(4-(6-((6-acetyl-8-cyclopentyl-5-methyl-7-oxo-7,8-dihydropyrido[2,3-d]pyrimidin-2-yl)amino)pyridin-3-yl)piperazine-1-carbonyl)piperazin-1-yl)methyl)piperidin-1-yl)-1-oxoisoindolin-2-yl)piperidine-2,6-dione] | > 200 | > 50 | > 200 | > 50 | > 200
2 | CC(=O)c1c(C)c2cnc(Nc3ccc(N4CCN(C(=O)N5CCC(CN6CCC(c7ccc8c(c7)C(=O)N(C7CCC(=O)NC7=O)C8=O)CC6)CC5)CC4)cn3)nc2n(C2CCCC2)c1=O (stereo not shown) [Compound 17, 5-(1-((1-(4-(6-((6-acetyl-8-cyclopentyl-5-methyl-7-oxo-7,8-dihydropyrido[2,3-d]pyrimidin-2-yl)amino)pyridin-3-yl)piperazine-1-carbonyl)piperidin-4-yl)methyl)piperidin-4-yl)-2-(2,6-dioxopiperidin-3-yl)isoindoline-1,3-dione] | 50 to 200 | > 50 | 50 to 200 | > 50 | 50 to 200
3 | CC(=O)c1c(C)c2cnc(Nc3ccc(N4CCN(C(=O)N5CCC(CN6CCC(c7ccc8c(c7)CN(C7CCC(=O)NC7=O)C8=O)CC6)CC5)CC4)cn3)nc2n(C2CCCC2)c1=O (stereo not shown) [Compound 18, 3-(5-(1-((1-(4-(6-((6-acetyl-8-cyclopentyl-5-methyl-7-oxo-7,8-dihydropyrido[2,3-d]pyrimidin-2-yl)amino)pyridin-3-yl)piperazine-1-carbonyl)piperidin-4-yl)methyl)piperidin-4-yl)-1-oxoisoindolin-2-yl) piperidine-2,6-dione] | > 200 | > 50 | > 200 | > 50 | > 200
4 | CC(=O)c1c(C)c2cnc(Nc3ccc(N4CCN(C(=O)N5CCC(CCN6CCN(c7ccc8c(c7)C(=O)N(C7CCC(=O)NC7=O)C8=O)CC6)CC5)CC4)cn3)nc2n(C2CCCC2)c1=O (stereo not shown) [Compound 19, 5-(4-(2-(1-(4-(6-((6-acetyl-8-cyclopentyl-5-methyl-7-oxo-7,8-dihydropyrido[2,3-d]pyrimidin-2-yl)amino)pyridin-3-yl)piperazine-1-carbonyl)piperidin-4-yl)ethyl)piperazin-1-yl)-2-(2,6-dioxopiperidin-3-yl)isoindoline-1,3-dione] | 50 to 200 | > 60 | 50 to 200 | > 60 | < 50
5 | CC(=O)c1c(C)c2cnc(Nc3ccc(N4CCN(C(=O)N5CCC(CCN6CCN(c7ccc8c(c7)CN(C7CCC(=O)NC7=O)C8=O)CC6)CC5)CC4)cn3)nc2n(C2CCCC2)c1=O (stereo not shown) [Compound 20, 3-(5-(4-(2-(1-(4-(6-((6-acetyl-8-cyclopentyl-5-methyl-7-oxo-7,8-dihydropyrido[2,3-d]pyrimidin-2-yl)amino)pyridin-3-yl)piperazine-1-carbonyl)piperidin-4-yl)ethyl)piperazin-1-yl)-1-oxoisoindolin-2-yl)piperidine-2,6-dione] | 50 to 200 | > 60 | 50 to 200 | > 60 | 50 to 200
6 | CC(=O)c1c(C)c2cnc(Nc3ccc(N4CCN(C(=O)N5CCN(CCN6CCN(c7ccc8c(c7)C(=O)N(C7CCC(=O)NC7=O)C8=O)CC6)CC5)CC4)cn3)nc2n(C2CCCC2)c1=O (stereo not shown) [Compound 21, 5-(4-(2-(4-(4-(6-((6-acetyl-8-cyclopentyl-5-methyl-7-oxo-7,8-dihydropyrido[2,3-d]pyrimidin-2-yl)amino)pyridin-3-yl)piperazine-1-carbonyl)piperazin-1-yl)ethyl)piperazin-1-yl)-2-(2,6-dioxopiperidin-3-yl)isoindoline-1,3-dione] | 50 to 200 | > 60 | 50 to 200 | > 60 | 50 to 200
7 | CC(=O)c1c(C)c2cnc(Nc3ccc(N4CCN(C(=O)N5CCN(CCN6CCN(c7ccc8c(c7)CN(C7CCC(=O)NC7=O)C8=O)CC6)CC5)CC4)cn3)nc2n(C2CCCC2)c1=O (stereo not shown) [Compound 22, 3-(5-(4-(2-(4-(4-(6-((6-acetyl-8-cyclopentyl-5-methyl-7-oxo-7,8-dihydropyrido[2,3-d]pyrimidin-2-yl)amino)pyridin-3-yl)piperazine-1-carbonyl)piperazin-1-yl)ethyl)piperazin-1-yl)-1-oxoisoindolin-2-yl)piperidine-2,6-dione] | > 200 | > 60 | > 200 | > 60 | > 200
8 | CC(=O)c1c(C)c2cnc(Nc3ccc(N4CCN(C(=O)N5CCN(CCC6CCN(c7ccc8c(c7)C(=O)N(C7CCC(=O)NC7=O)C8=O)CC6)CC5)CC4)cn3)nc2n(C2CCCC2)c1=O (stereo not shown) [Compound 23, 5-(4-(2-(4-(4-(6-((6-acetyl-8-cyclopentyl-5-methyl-7-oxo-7,8-dihydropyrido[2,3-d]pyrimidin-2-yl)amino)pyridin-3-yl)piperazine-1-carbonyl)piperazin-1-yl)ethyl)piperidin-1-yl)-2-(2,6-dioxopiperidin-3-yl) isoindoline-1,3-dione] | > 200 | > 60 | > 200 | > 60 | > 200
9 | CC(=O)c1c(C)c2cnc(Nc3ccc(N4CCN(C(=O)N5CCN(CCC6CCN(c7ccc8c(c7)CN(C7CCC(=O)NC7=O)C8=O)CC6)CC5)CC4)cn3)nc2n(C2CCCC2)c1=O (stereo not shown) [Compound 24, 3-(5-(4-(2-(4-(4-(6-((6-acetyl-8-cyclopentyl-5-methyl-7-oxo-7,8-dihydropyrido[2,3-d]pyrimidin-2-yl)amino)pyridin-3-yl)piperazine-1-carbonyl)piperazin-1-yl)ethyl)piperidin-1-yl)-1-oxoisoindolin-2-yl)piperidine-2,6-dione] | > 200 | > 50 | > 200 | > 50 | > 200
10 | CC(=O)c1c(C)c2cnc(Nc3ccc(N4CCN(C(=O)N5CCC(CCC6CCN(c7ccc8c(c7)C(=O)N(C7CCC(=O)NC7=O)C8=O)CC6)CC5)CC4)cn3)nc2n(C2CCCC2)c1=O (stereo not shown) [Compound 25, 5-(4-(2-(1-(4-(6-((6-acetyl-8-cyclopentyl-5-methyl-7-oxo-7,8-dihydropyrido[2,3-d]pyrimidin-2-yl)amino)pyridin-3-yl)piperazine-1-carbonyl)piperidin-4-yl)ethyl)piperidin-1-yl)-2-(2,6-dioxopiperidin-3-yl)isoindoline-1,3-dione] | 50 to 200 | > 60 | > 200 | > 60 | 50 to 200
11 | CC(=O)c1c(C)c2cnc(Nc3ccc(N4CCN(C(=O)N5CCC(CCC6CCN(c7ccc8c(c7)CN(C7CCC(=O)NC7=O)C8=O)CC6)CC5)CC4)cn3)nc2n(C2CCCC2)c1=O (stereo not shown) [Compound 26, 3-(5-(4-(2-(1-(4-(6-((6-acetyl-8-cyclopentyl-5-methyl-7-oxo-7,8-dihydropyrido[2,3-d]pyrimidin-2-yl)amino)pyridin-3-yl)piperazine-1-carbonyl)piperidin-4-yl)ethyl)piperidin-1-yl)-1-oxoisoindolin-2-yl)piperidine-2,6-dione] | > 200 | > 50 | > 200 | > 50 | 50 to 200
